The values below come from US11506670B2, “Method of genome-wide direct identification of electrophile-sensing targets” (Cornell University, priority 2018, dated 2022).

Several values for one entry are separate records, joined by “and”; a condition that tells them apart may be missing. Equal values may be shown once. Where only a bound is given, the exact number is not on record here.

Assay [1] concerns the target Ube2V2 (Homo sapiens, UniProt Q15819). Nature of the assay: T-REX targeted delivery efficiency, in-gel fluorescence (Cy5 Click). The format is cell-based. Also noted: the gene of interest (GOI) was PCR-amplified out from the original plasmid; expressed in transfected cells; host or cells: HEK 293T. The settings on record: HEK293T, Halo-Ube2V2. The protocol:
(§1) HEK 293T cells were maintained in 1×MEM+ Glutamax™ media supplemented with 10% FBS, 1×NEAA, 1× sodium pyruvate and 1× Pen-Strep. Cells were grown in a humidified, 5% CO2 incubator at 37° C. For in-gel fluorescence analysis and western blot, ˜0.7-0.8×10^6 HEK 293T cells were seeded in 8 cm^2 tissue culture dishes. 24 h later, cells were transfected using TransIT-2020 transfection reagent per the manufacturer's recommendation. Subsequent steps were performed under dim light. 24-36 h post transfection, monolayer of cells were treated with 25 μM Ht-PreHNE in serum-free media and incubated for 2.5 h. Cells were gently rinsed with serum-free media three times every 30 min over the next 1.5 h. Meanwhile, UV lamps were turned on 10 min prior to UV irradiation time. For samples designated for light exposure, lids were removed from the dishes and cells were placed under 365 nm UV light for 5-8 min. The cells were harvested, washed two times with ice-cold PBS and frozen in liquid nitrogen.
(§2) All steps were performed in dark or under dim light. Cells from 8 cm^2 plates were lysed in 30 μL buffer containing 50 mM HEPES (pH 7.6), 150 mM NaCl, 1% Nonidet P-40, 1× Roche cOmplete, mini, EDTA-free protease inhibitor cocktail, and 0.3 mM TCEP by rapid freeze-thaw (×3). […] Protein concentration of the clarified lysate was determined using Bradford assay. […]

Assay [2] has as its target T1, Ube2V1 (Homo sapiens, UniProt Q13404).
T1 construct: the gene of interest (GOI) was PCR-amplified out from the original plasmid; expressed in transfected cells; host or cells: HEK 293T
The assay is described as above. To be noted: HEK293T, Halo-Ube2V1. The format is cell-based. The protocol: as §1, §2

In assay [3] the target is T2, Ube2N (Homo sapiens, UniProt P61088).
T2 construct: expressed in transfected cells; host or cells: HEK 293T
T2 sequence (P61088 1-152): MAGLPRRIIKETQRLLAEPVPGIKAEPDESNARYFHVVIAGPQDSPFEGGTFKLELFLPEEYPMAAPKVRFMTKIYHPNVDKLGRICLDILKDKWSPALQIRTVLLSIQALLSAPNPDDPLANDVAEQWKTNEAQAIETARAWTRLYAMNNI
The description is as above. The settings on record: HEK293T, Halo-Ube2N. The format is cell-based. The method, then: as §1, §2

The subject of assay [4] is γ-H2AX. Nature of the assay: γ-H2AX immunofluorescence in HEK293T cells. The format is cell-based, human. The protocol: Cells were grown to 70% confluence in 35 mm glass-bottomed dishes and transfected with HaloTagged plasmids. T-REX™ delivery was performed as mentioned above. […] The fixative was aspirated and the cells washed three times with 1×DPBS with 5-min incubation at room temperature. Blocking and permeabilization was performed in one-step by incubation at 37° C. for 1 h in 1×DPBS containing 3% BSA and 0.2% Triton X-100. Cells were subsequently incubated with primary antibody (1:300, Table 4) in incubation buffer (1% BSA, 0.02% Triton X-100 in 1×DPBS) for 2 h at room temperature. Cells were rinsed 3 times with 1×DPBS with 5 min incubation for each wash and subsequently incubated in dark for 1 h at room temperature with corresponding second antibody (1:1000, Table 4) in incubation buffer. Cells were rinsed 3 times with 1×DPBS with 5 min incubation for each rinse. DAPI (Sigma) was freshly prepared in 1×DPBS from 2 mg/mL wt./v stock solution in water and added to the wells at the final concentration of 0.2 μg/mL. The samples were incubated in dark for 1 min and washed once with 1×DPBS and stored at 4° C. in dark till images were taken using a Zeiss LSM 710 meta confocal fluorescence microscope. Image analysis was performed using Image-J (NIH).

Ube2V2, sequence (Q15819 whole entry): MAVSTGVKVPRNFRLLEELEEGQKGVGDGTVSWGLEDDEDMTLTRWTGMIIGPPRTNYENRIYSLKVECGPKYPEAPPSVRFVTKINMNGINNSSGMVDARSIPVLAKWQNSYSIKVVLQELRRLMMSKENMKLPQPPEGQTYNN
T1 sequence (Q13404 1-170 isoform Q13404-2): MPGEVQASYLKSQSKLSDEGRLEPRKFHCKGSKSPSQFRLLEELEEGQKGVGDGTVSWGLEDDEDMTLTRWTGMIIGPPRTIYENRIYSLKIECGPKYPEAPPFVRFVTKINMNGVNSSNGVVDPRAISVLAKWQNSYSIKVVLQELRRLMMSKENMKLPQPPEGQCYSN

`CCCCCC(O)/C=C/C=O` (stereo not drawn) [HNE, 4-hydroxynonenal]: the “T-REX targeted delivery efficiency” value in assay [1] is 15±6% and 15%; in assay [2], 5±2%; in assay [3] it was < 2%. In addition, the “γ-H2AX upregulation in Ube2V2-C69S-expressing cells” value in assay [4] (T-REX, over 18-h time course) was “no significant γ-H2AX upregulation”. Moreover, the “time post light exposure up to which increased γ-H2AX could be measured” value in assay [4] (basal after 24 h) is “up to 18 h”. The “increase in cellular γ-H2AX following Ube2V2(C69)-targeted-HNEylation” value in assay [4] (wt-Halo-Ube2V2, T-REX) is listed as “approximately two-fold”.
